Measured values taken from ChEMBL document CHEMBL1201862, “PubChem BioAssay data set” (2004).
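Exposure lasted 48 hours, with cells grown in 96-well plates and compounds tested at five concentrations. GI50: concentration for 50% inhibition of growth.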 Activity calls are given as the source filed them. Rule as the data show it: active = GI50 up to about 1.1 µM and inactive = higher.

Assays:
Assay in all cases: DTP human tumour cell line panel, 48 h
[1] = test system: 786-0
[2] = test system: A498
[3] = test system: A549
[4] = test system: ACHN
[5] = test system: CAKI-1
[6] = test system: CCRF-CEM
[7] = test system: COLO 205
[8] = test system: DLD-1
[9] = test system: DMS-114
[10] = test system: DMS-273
[11] = test system: EKVX
[12] = test system: HCC 2998
[13] = test system: HCT-116
[14] = test system: HCT-15
[15] = test system: HL-60
[16] = test system: HOP-18
[17] = test system: HOP-62
[18] = test system: HOP-92
[19] = test system: HT-29
[20] = test system: IGROV-1
[21] = test system: K562
[22] = test system: KM-20L2
[23] = test system: KM12
[24] = test system: LOX IMVI
[25] = test system: LXFL 529
[26] = test system: M14
[27] = test system: M19-MEL
[28] = test system: MOLT-4
[29] = test system: Malme-3M
[30] = test system: NCI-H226
[31] = test system: NCI-H23
[32] = test system: NCI-H460
[33] = test system: NCI-H522
[34] = test system: OVCAR-3
[35] = test system: OVCAR-4
[36] = test system: OVCAR-5
[37] = test system: OVCAR-8
[38] = test system: RPMI-8226
[39] = test system: SF-268
[40] = test system: SF-295
[41] = test system: SF-539
[42] = test system: SK-MEL-28
[43] = test system: SK-MEL-2
[44] = test system: SK-MEL-5
[45] = test system: SK-OV-3
[46] = test system: SN12C
[47] = test system: SNB-19
[48] = test system: SNB-75
[49] = test system: SW-620
[50] = test system: TK-10
[51] = test system: U-251
[52] = test system: UACC-62
[53] = test system: XF498

Measured: GI50

CCOC(=O)C1(C(=O)OCC)CC=C(C)CC12C(=O)Nc1ccccc12 (stereo not drawn)
inactive: [1] > 100 µM | [2] > 100 µM | [3] > 100 µM | [4] > 100 µM | [5] > 100 µM | [6] > 100 µM | [7] > 100 µM | [8] > 100 µM | [9] > 100 µM | [10] > 100 µM | [11] > 100 µM | [12] > 100 µM | [13] > 100 µM | [15] > 100 µM | [16] > 100 µM | [17] > 100 µM | [18] > 100 µM | [19] > 100 µM | [20] > 100 µM | [21] > 100 µM | [22] > 100 µM | [23] > 100 µM | [24] > 100 µM | [25] > 100 µM | [26] > 100 µM | [27] > 100 µM | [28] > 100 µM | [29] > 100 µM | [30] > 100 µM | [31] > 100 µM | [32] > 100 µM | [33] > 100 µM | [34] > 100 µM | [35] > 100 µM | [36] > 100 µM | [37] > 100 µM | [38] > 100 µM | [39] > 100 µM | [40] > 100 µM | [41] > 100 µM | [42] > 100 µM | [43] > 100 µM | [44] > 100 µM | [45] > 100 µM | [46] > 100 µM | [47] > 100 µM | [48] > 100 µM | [49] > 100 µM | [50] > 100 µM | [51] > 100 µM | [52] > 100 µM | [53] > 100 µM
> 100 µM: [14]
